Earlier results on 1 compound are cited in US12076400B2, “Methods of using a bispecific antigen-binding construct targeting HER2 in combination with CDK4/6 inhibitors for the treatment of breast cancer” (c/o Zymeworks BC Inc., priority 2019, dated 2024).

This data set deals with estrogen receptor (ER)-positive breast cancer cell lines. The settings on record: by blocking progression from G1 into S phase.

For the compound `CC(=O)c1c(C)c2cnc(Nc3ccc(N4CCNCC4)cn3)nc2n(C2CCCC2)c1=O` [palbociclib, Palbociclib], the “Cellular proliferation in vitro” value is on record as “reduced cellular proliferation”.
